This note sets out measurements from the OligoGym collection.

Values joined by “and” are separate entries in the source; they are usually repeats but may differ in a detail not shown here. Identical values can stand only once. After the bases stand the sugars from the 5' end (letter, count) and the backbone: PS all phosphorothioate, else s phosphorothioate and o phosphodiester by linkage. Methylation of C is not given here. e = 2'-O-(2-methoxyethyl) (MOE); k = constrained ethyl (cEt); d = 2'-deoxy (DNA)

The data set deals with IRF4. To be noted: ASO.

As for CACTATTAAGAACTTG (sugars k3 d10 k3, PS), the target mRNA inhibition (SK-MEL-28, 4 µM) came out at 33%.

CACTCATCTTGACATT (sugars k3 d10 k3, PS): the target mRNA inhibition (SK-MEL-28, 4 µM) came to 36%. CACTTGTCTTGGGTGG (sugars k3 d10 k3, PS): the target mRNA inhibition (SK-MEL-28, 4 µM) was determined as 45%. CACTTTAAAAGTTGAC (sugars k3 d10 k3, PS): the target mRNA inhibition (SK-MEL-28, 4 µM) was determined as 28%.

For CAGAAATCACGAGGTT (sugars k3 d10 k3, PS), the target mRNA inhibition (MM.1R, 1 µM) amounted to 25%. Consider CAGAAGATCTCTACTG (sugars k3 d10 k3, PS), for which, where the note is “SK-MEL-28, 4 µM”, the target mRNA inhibition came out at 12%. The same measure, in the same setting: to CAGACCTTATGCTTGG (sugars k3 d10 k3, PS) belongs 10%. Still for that read-out and setting: the same measure for CAGAGACGCGGTGAGA (sugars k3 d10 k3, PS): -61%. In the case of CAGAGCTCCGGAGTCA (sugars k3 d10 k3, PS), the target mRNA inhibition (MM.1R, 1 µM) was -6%.

Take CAGCAAGTGTCTTCCA (sugars k3 d10 k3, PS): the target mRNA inhibition (SK-MEL-28, 4 µM) was 64%. As for CAGCATGAGCTCGGTC (sugars k3 d10 k3, PS), for the setting “MM.1R, 1 µM”, the target mRNA inhibition was 22%. Regarding CAGCATTGGACCCACG (sugars k3 d10 k3, PS), the target mRNA inhibition (MM.1R, 1 µM) was 4%. Consider CAGTACAGTCCACTCC (sugars k3 d10 k3, PS), for which the target mRNA inhibition (MM.1R, 1 µM) came to 5%. As for CAGTCTCAAAAACGGG (sugars k3 d10 k3, PS), the target mRNA inhibition (SK-MEL-28, 4 µM) was 51%. In the case of “CAGTGACTTGCATCCA (sugars kkdddddddddekeke, PS)”, the target mRNA inhibition (MM.1R, 1 µM) was 34%.

Regarding “CAGTGACTTGCATCCA (sugars kkdddddddddkdkdk, PS)”, under “MM.1R, 1 µM”, the target mRNA inhibition was found to be 36%.

“CAGTGATGTCAGGTTT (sugars k2 d9 e3 k2, PS)”: the target mRNA inhibition was 0% (MM.1R, 0.074 µM); 12% (MM.1R, 0.222 µM); 34% (MM.1R, 0.666 µM); 56% (MM.1R, 1 µM); 57% (MM.1R, 2 µM). Taken in the same sequence, the figures for “CAGTTGTAAATGAGTC (sugars k3 d9 k3 e1, PS)” were 26%, 42%, 65%, 68% and 84%. Consider CAGTTGTAAATGAGTC (sugars k3 d10 k3, PS), for which the target mRNA inhibition (SK-MEL-28, 4 µM) was 89% and 86%. For the sequence CATAGCTAGTTCATTC (sugars k3 d10 k3, PS), the target mRNA inhibition (SK-MEL-28, 4 µM) stood at 35%. For the sequence CATATTCCAACAGGCG (sugars k3 d10 k3, PS), the target mRNA inhibition (MM.1R, 1 µM) is -1%.

In the case of CATCACTCTAGTCAGT (sugars k3 d10 k3, PS), for the setting “SK-MEL-28, 4 µM”, the target mRNA inhibition worked out at 59%. Regarding CATCACTTGGTCAATT (sugars k3 d10 k3, PS), the target mRNA inhibition (SK-MEL-28, 4 µM) came out at 29%. For CATCATGTAGTTGTGA (sugars k3 d10 k3, PS), the target mRNA inhibition (SK-MEL-28, 4 µM) was found to be 41%. On the same count and under the same terms, the same measure for CATGAAATCCAAGGTA (sugars k3 d10 k3, PS): 49%; for CATGAGGGTGACACAC (sugars k3 d10 k3, PS): 47%; for CATGATGTATACCAAC (sugars k3 d10 k3, PS): 51%. Regarding CATGGTATTTTTCCGT (sugars k3 d10 k3, PS), the target mRNA inhibition is 4% (MM.1R, 0.0625 µM); 36% (MM.1R, 0.25 µM); 38% and 48% (MM.1R, 1 µM); 66% (MM.1R, 4 µM).

For CATGGTTACTAATTCC (sugars k3 d10 k3, PS), the target mRNA inhibition (MM.1R, 1 µM) stood at 25%.

With CATGTAAAGTCTGCTG (sugars k3 d10 k3, PS), the target mRNA inhibition (SK-MEL-28, 4 µM) was found to be 58%. Still for that read-out and setting: to CATTACTAGATTGTAG (sugars k3 d10 k3, PS) belongs 9%; to CATTACTTAGACATTA (sugars k3 d10 k3, PS), 19%. For the sequence CATTTACTGTTACCGA (sugars k3 d10 k3, PS), the target mRNA inhibition (MM.1R, 0.074 µM) was -14%; the target mRNA inhibition (MM.1R, 0.222 µM) was found to be 0%; the target mRNA inhibition (MM.1R, 0.666 µM) is -9%; the target mRNA inhibition (MM.1R, 2 µM) was determined as 10%; the target mRNA inhibition (SK-MEL-28, 4 µM) came to 79%. As to CCAAACCTTAAGCTAT (sugars k3 d10 k3, PS), the target mRNA inhibition (MM.1R, 1 µM) is 18% and 34%. Take CCAAAGGGTTCAGTGT (sugars k3 d10 k3, PS): where the note is “SK-MEL-28, 4 µM”, the target mRNA inhibition stood at 26%. Still for that read-out and setting: the same measure for CCAAATGTGGAGCTCC (sugars k3 d10 k3, PS): 23%. Turning to CCAAATTCCCGGAGGA (sugars k3 d10 k3, PS), under “MM.1R, 1 µM”, the target mRNA inhibition was -25%. With CCAACGACAGCATAGC (sugars k3 d10 k3, PS), the target mRNA inhibition (SK-MEL-28, 4 µM) stood at 76%.

In the case of CCAAGGATAACCTGAA (sugars k3 d10 k3, PS), under “SK-MEL-28, 4 µM”, the target mRNA inhibition is 44%. On the same count and under the same terms, to CCAATACATATCCATG (sugars k3 d10 k3, PS) belongs 60%.

For the sequence CCACACAAGTCTTAGG (sugars k3 d10 k3, PS), under “MM.1R, 1 µM”, the target mRNA inhibition worked out at 15%. Regarding CCACATACCTGAAACG (sugars k3 d10 k3, PS), under “MM.1R, 1 µM”, the target mRNA inhibition was -9%.

In the case of CCACATTAGCAATTAG (sugars k3 d10 k3, PS), the target mRNA inhibition (SK-MEL-28, 4 µM) was 19%.

Take CCACTGGCGGAGCTTC (sugars k3 d10 k3, PS): the target mRNA inhibition (SK-MEL-28, 4 µM) was determined as 36%. CCAGCTTCGGTCGAGG (sugars k3 d10 k3, PS): the target mRNA inhibition (MM.1R, 1 µM) was -5%.

Regarding CCAGGAAACCGCTGGC (sugars k3 d10 k3, PS), the target mRNA inhibition (SK-MEL-28, 4 µM) was 38%. With CCAGGTTAAACAGGAA (sugars k3 d10 k3, PS), the target mRNA inhibition (SK-MEL-28, 4 µM) worked out at 6%. The same measure, in the same setting: the same measure for CCATAGAGCCAGAGCA (sugars k3 d10 k3, PS): 64%; for CCATGGGAGATCCGGC (sugars k3 d10 k3, PS): 54%; for CCATTTAATCTGTCTA (sugars k3 d10 k3, PS): 28%.

On to CCCAAAATACTTTGCA (sugars k3 d10 k3, PS), for which the target mRNA inhibition (SK-MEL-28, 4 µM) was 64%. As to CCCAAAGGGCATCCTC (sugars k3 d10 k3, PS), the target mRNA inhibition (SK-MEL-28, 4 µM) was 41%. Same read-out and setting: the same measure for CCCAAGATCGAGCGGT (sugars k3 d10 k3, PS): 28%; for CCCAAGCCTTGAAGAG (sugars k4 d8 k4, PS): 22%. Regarding CCCATCGAATCTGCCC (sugars k3 d10 k3, PS), the target mRNA inhibition (MM.1R, 1 µM) is -24%.

Take CCCCAGGGCCCTCGGT (sugars k3 d10 k3, PS): under “SK-MEL-28, 4 µM”, the target mRNA inhibition came to 18%.

Regarding CCCCGTATCCCCGTAT (sugars k3 d10 k3, PS), the target mRNA inhibition (SK-MEL-28, 4 µM) is 45%. Same read-out and setting: the same measure for CCCGACACGCGCCGCT (sugars k3 d10 k3, PS): 12%; for CCCTAAGTTTAATTTA (sugars k3 d10 k3, PS): -3%. Still for that read-out and setting: the same measure for CCCTAGGTCATACCCT (sugars k3 d10 k3, PS): 57%. As for CCCTCATCACCGAACA (sugars k3 d10 k3, PS), for the setting “MM.1R, 1 µM”, the target mRNA inhibition is -25%. As to CCCTTATTAGACTGAC (sugars k3 d10 k3, PS), the target mRNA inhibition (SK-MEL-28, 4 µM) worked out at 67%.

With CCCTTGCTGCAAATCC (sugars k3 d10 k3, PS), the target mRNA inhibition (MM.1R, 1 µM) was -4%.

Consider CCGCACTCACTCGCAG (sugars k3 d10 k3, PS), for which the target mRNA inhibition (SK-MEL-28, 4 µM) turned out to be 8%.
